Like-named read-outs stand apart in the source and are kept apart here.
How the values were obtained:
[1] = Cytotoxicity in mitogen stimulated uninfected human PBM cells (trypan blue exclusion); format: cell-based
Description: The cells were counted after 6 days using a hemacytometer and the trypan blue exclusion method, as described by Schinazi et al., Antimicrobial Agents and Chemotherapy, 22(3), 499 (1982).

hepG2 cells = system: hepG2 cells
Experimental: (§1) Studies were undertaken using radiolabeled agent in order to follow the intracellular profiles of the parent drug and metabolites detected within the cell. All studies were conducted in duplicate. […] Cells are exposed to the drug for 2, 6, 12 and 24 hours. At these timepoints, the medium is removed and the cells are washed two times with cold Hank's balanced salt solution. Extraction is performed with addition of 0.2 ml of 60% cold methanol/water and stored overnight at −70° C. The following morning, the suspensions are centrifuged and extractions are repeated two times for 0.5 hours at −70° C. The total supernatants (0.6 ml) are lyophilized to dryness. The residues are resuspended in 250 μl of water and aliquots comprising between 50 and 100 μl are analyzed by HPLC. Quantitation of intracellular parent drug and metabolic derivatives are conducted by HPLC. Because of the potential acid lability of some compounds, a buffer system close to physiological pH is used for the separation of the metabolites.

human PBM cells = details: 10 μM radiolabeled FTC, 2-24 hours
Experimental: as §1

Vero cells = details: African green monkey
HIV-1 (strain LAV) = test: microbe, parasite or virus in culture; format: cell-based
Description: It is often desirable to screen a number of racemic mixtures of nucleosides as a preliminary step to determine which warrant further resolution into enantiomerically enriched components and evaluation of antiviral activity. The ability of nucleosides to inhibit HIV can be measured by various experimental techniques. The technique used herein, and described in detail below, measures the inhibition of viral replication in phytohemagglutinin (PHA) stimulated human peripheral blood mononuclear (PBM) cells infected with HIV-1 (strain LAV). The amount of virus produced is determined by measuring the virus-coded reverse transcriptase enzyme. The amount of enzyme produced is proportional to the amount of virus produced.
A. Three-day-old phytohemagglutinin-stimulated PBM cells (10^6 cells/ml) from hepatitis B and HIV-1 seronegative healthy donors were infected with HIV-1 (strain LAV) at a concentration of about 100 times the 50% tissue culture infectious dose (TICD 50) per ml and cultured in the presence and absence of various concentrations of antiviral compounds.
B. Approximately one hour after infection, the medium, with the compound to be tested (2 times the final concentration in medium) or without compound, was added to the flasks (5 ml; final volume 10 ml). AZT was used as a positive control.
C. The cells were exposed to the virus (about 2×10^5 dpm/ml, as determined by reverse transcriptase assay) and then placed in a CO2 incubator. HIV-1 (strain LAV) was obtained from the Center for Disease Control, Atlanta, Ga. The methods used for culturing the PBM cells, harvesting the virus and determining the reverse transcriptase activity were those described by McDougal et al. (J. Immun. Meth. 76, 171-183, 1985) and Spira et al. (J. Clin. Meth. 25, 97-99, 1987), except that fungizone was not included in the medium (see Schinazi, et al., Antimicrob. Agents Chemother. 32, 1784-1787 (1988); Id., 34:1061-1067 (1990)).
D. On day 6, the cells and supernatant were transferred to a 15 ml tube and centrifuged at about 900 g for 10 minutes. Five ml of supernatant were removed and the virus was concentrated by centrifugation at 40,000 rpm for 30 minutes (Beckman 70.1 Ti rotor). The solubilized virus pellet was processed for determination of the levels of reverse transcriptase. Results are expressed in dpm/ml of sampled supernatant. Virus from smaller volumes of supernatant (1 ml) can also be concentrated by centrifugation prior to solubilization and determination of reverse transcriptase levels.

CEM cells = details: human

**Q.** Which IC50 at 6 days [1] does the source give for `Nc1nc(=O)n(C2CSC(CO)O2)cc1F` (racemic) [DLS-022, 2-hydroxymethyl-5-(5-fluorocytosin-1-yl)-1,3-oxathiolane] here?
**A.** Its IC50 at 6 days is > 100000 nM.

**Q.** What about the “metabolism to triphosphate in human liver cells” value (hepG2 cells; hepG2 cells) of the same molecule?
**A.** The value was “metabolize a large percentage”.

**Q.** What about the “uptake by hepG2 cells” value (hepG2 cells; human liver cells) of the same molecule?
**A.** The value was “taken up by hepG2 cells in large amounts”.

**Q.** What about the “uptake in human lymphocytes” value (human PBM cells) of the same molecule?
**A.** Its value is “readily taken up”.

**Q.** What about the “activity against HBV” value (HBV (hepatitis B virus)) of the same molecule?
**A.** The value was “effective”.

**Q.** And the toxicity (Vero cells)?
**A.** Its toxicity is > 100 µM.

**Q.** And the DPM/ml (HIV-1 (strain LAV); 0.0001 μM)?
**A.** Its DPM/ml is 73,755 DPM/ml.

**Q.** And the DPM/ml (HIV-1 (strain LAV); 0.005 μM)?
**A.** Its DPM/ml is 83,005 DPM/ml.

**Q.** What about the DPM/ml (HIV-1 (strain LAV); 0.01 μM) of the same molecule?
**A.** Its DPM/ml is 60,465 DPM/ml.

**Q.** What about the DPM/ml (HIV-1 (strain LAV); 0.05 μM) of the same molecule?
**A.** Its DPM/ml is 34,120 DPM/ml.

**Q.** And the DPM/ml (HIV-1 (strain LAV); 0.1 μM)?
**A.** Its DPM/ml is 14,160 DPM/ml.

**Q.** And the DPM/ml (HIV-1 (strain LAV); 0.5 μM)?
**A.** The DPM/ml was 18,095 DPM/ml.

**Q.** What about the DPM/ml (HIV-1 (strain LAV); 1 μM) of the same molecule?
**A.** The DPM/ml was 7,555 DPM/ml.

**Q.** And the DPM/ml (HIV-1 (strain LAV); 5 μM)?
**A.** Its DPM/ml is 7,940 DPM/ml.

**Q.** And the DPM/ml (HIV-1 (strain LAV); 10 μM)?
**A.** Its DPM/ml is 5,810 DPM/ml.

**Q.** And the inhibition at 0.0001 µM (HIV-1 (strain LAV); Human immunodeficiency virus 1, PBMC, 0.0001 μM, read-out: % Inhibition (Corrected))?
**A.** Its inhibition at 0.0001 µM is 26.6%.

**Q.** And the EC50 (HIV-1 (strain LAV); Human immunodeficiency virus 1, PBMC, human PBM cells infected with HIV-1 (strain LAV), Table 3, read-out: Antiviral EC50)?
**A.** Its EC50 is 11 nM.

**Q.** And the EC50 (HIV-1 (strain LAV); Human immunodeficiency virus 1, PBMC, human PBM cells infected with HIV-1, enantiomers isolated by chiral HPLC (Example 3), read-out: EC50)?
**A.** The EC50 was 18 nM.

**Q.** What about the EC50 (HIV-1 (strain LAV); Human immunodeficiency virus 1, PBMC, human PBM cells infected with HIV-1, enantiomers resolved by method of Example 2 (FIG. 5), read-out: EC50) of the same molecule?
**A.** Its EC50 is 17 nM.

**Q.** And the inhibition at 0.005 µM (HIV-1 (strain LAV); Human immunodeficiency virus 1, PBMC, 0.005 μM, read-out: % Inhibition (Corrected))?
**A.** Its inhibition at 0.005 µM is 16.3%.

**Q.** What about the inhibition at 0.01 µM (HIV-1 (strain LAV); Human immunodeficiency virus 1, PBMC, 0.01 μM, read-out: % Inhibition (Corrected)) of the same molecule?
**A.** The inhibition at 0.01 µM was 41.3%.

**Q.** And the inhibition at 0.05 µM (HIV-1 (strain LAV); Human immunodeficiency virus 1, PBMC, 0.05 μM, read-out: % Inhibition (Corrected))?
**A.** Its inhibition at 0.05 µM is 70.4%.

**Q.** And the inhibition at 0.5 µM (HIV-1 (strain LAV); Human immunodeficiency virus 1, PBMC, 0.5 μM, read-out: % Inhibition (Corrected))?
**A.** Its inhibition at 0.5 µM is 88.1%.

**Q.** And the inhibition at 1 µM (HIV-1 (strain LAV); Human immunodeficiency virus 1, PBMC, 1 μM, read-out: % Inhibition (Corrected))?
**A.** The inhibition at 1 µM was 99.7%.

**Q.** And the inhibition at 5 µM (HIV-1 (strain LAV); Human immunodeficiency virus 1, PBMC, 5 μM, read-out: % Inhibition (Corrected))?
**A.** The inhibition at 5 µM was 99.3%.

**Q.** And the inhibition at 10 µM (HIV-1 (strain LAV); Human immunodeficiency virus 1, PBMC, 10 μM, read-out: % Inhibition (Corrected))?
**A.** Its inhibition at 10 µM is 102%.

**Q.** What about the toxicity (CEM cells) of the same molecule?
**A.** Its toxicity is > 100 µM.

Reference: patent US20090239887A1, “Method of resolution and antiviral activity of 1,3-oxathiolane nucleoside enantiomers” (Emory University, priority 1990, published 2009)
